Four molecules from ChEMBL document CHEMBL5506062, “Discovery and Optimization of N-Arylated Tetracyclic Dicarboximides That Target Primary Glioma Stem-like Cells” (J Med Chem, 2024) can be followed below.

Holding throughout (assay type): ADME, organism-based
Data set [1] can be described thus: Tmax in female CD-1 mouse plasma at 10 mg/kg, ip measured after 10 to 1440 mins by LC-MS/MS analysis.
The nature of data set [2]: Tmax in female CD-1 mouse brain at 10 mg/kg, ip measured after 10 to 1440 mins by LC-MS/MS analysis.
Data set [3] in a line: Cmax in female CD-1 mouse plasma at 10 mg/kg, ip measured after 10 to 1440 mins by LC-MS/MS analysis.
Data set [4] can be described thus: AUClast in female CD-1 mouse brain at 10 mg/kg, ip measured after 10 to 1440 mins by LC-MS/MS analysis. Conditions: in vivo.
A short description of data set [5]: Cmax in female CD-1 mouse brain at 10 mg/kg, ip measured after 10 to 1440 mins by LC-MS/MS analysis.
A short description of data set [6]: AUClast in female CD-1 mouse plasma at 10 mg/kg, ip measured after 10 to 1440 mins by LC-MS/MS analysis.
Data set [7] in a line: Ratio of drug concentration in brain to plasma in female CD-1 mouse at 10 mg/kg, ip measured after 10 to 1440 mins by LC-MS/MS analysis. The note with it: brain and plasma, read-out: K(p,uu,brain).
A short description of data set [8]: Tmax in female CD-1 mouse brain at 20 mg/kg, po measured after 0 to 1440 mins by LC-MS/MS analysis.
Data set [9] in a line: AUClast in female CD-1 mouse plasma at 20 mg/kg, po measured after 0 to 1440 mins by LC-MS/MS analysis.
Data set [10] is described as follows: Tmax in female CD-1 mouse brain at 5 mg/kg, iv measured after 0 to 1440 mins by LC-MS/MS analysis.
A short description of data set [11]: Drug concentration in female CD-1 mouse plasma at 20 mg/kg, po measured at 30 mins by LC-MS/MS analysis.
A short description of data set [12]: Oral bioavailability in female CD-1 mouse brain at 20 mg/kg measured after 0 to 1440 mins by LC-MS/MS analysis.
The nature of data set [13]: Cmax in female CD-1 mouse plasma at 5 mg/kg, iv measured after 0 to 1440 mins by LC-MS/MS analysis.
Data set [14] can be described thus: Cmax in female CD-1 mouse brain at 20 mg/kg, po measured after 0 to 1440 mins by LC-MS/MS analysis.
Data set [15] in a line: Drug concentration in female CD-1 mouse liver at 20 mg/kg, po measured at 30 mins by LC-MS/MS analysis. Conditions: read-out: Ct.
Data set [16] in a line: Cmax in female CD-1 mouse brain at 20 mg/kg, po measured at 90 mins by LC-MS/MS analysis.
Data set [17] is described as follows: Tmax in female CD-1 mouse plasma at 20 mg/kg, po measured after 0 to 1440 mins by LC-MS/MS analysis.
The nature of data set [18]: Oral bioavailability in female CD-1 mouse plasma at 20 mg/kg measured after 0 to 1440 mins by LC-MS/MS analysis.
Data set [19] is described as follows: AUClast in female CD-1 mouse plasma at 5 mg/kg, iv measured after 0 to 1440 mins by LC-MS/MS analysis.
The nature of data set [20]: Drug concentration in female CD-1 mouse brain at 20 mg/kg, po measured at 30 mins by LC-MS/MS analysis. Conditions: read-out: Ct.
Data set [21] is described as follows: AUClast in female CD-1 mouse brain at 20 mg/kg, po measured after 0 to 1440 mins by LC-MS/MS analysis. Conditions: in vivo.
Data set [22] can be described thus: Cmax in female CD-1 mouse brain at 5 mg/kg, iv measured after 0 to 1440 mins by LC-MS/MS analysis.
Data set [23] is described as follows: Tmax in female CD-1 mouse plasma at 5 mg/kg, iv measured after 0 to 1440 mins by LC-MS/MS analysis.
A short description of data set [24]: Cmax in female CD-1 mouse plasma at 20 mg/kg, po measured after 0 to 1440 mins by LC-MS/MS analysis.
A short description of data set [25]: AUClast in female CD-1 mouse brain at 5 mg/kg, iv measured after 0 to 1440 mins by LC-MS/MS analysis. Conditions: in vivo.

As a reminder, the Tmax is the time from dosing to the highest level. Broadly, the Cmax is the highest concentration seen after dosing. As a reminder, the AUC(0-t) is exposure summed from dosing to a finite time, without extrapolation to infinity. Read a high AUC(0-t) as more exposure. The term bioavailability denotes dose-corrected exposure relative to a reference, in per cent.

Turning to `COc1ccc(C(=O)C2CC2c2ccc(N3C(=O)[C@@H]4[C@@H]5C=C[C@@H]([C@H]6C[C@@H]56)[C@@H]4C3=O)c(F)c2)cc1Cl` (stereo partly specified), the time of peak concentration (Tmax) in data set [1] and in data set [2] was 30 min each time. Besides, the Cmax in data set [3] was 1970 ng/mL; in data set [5] it was 1110 ng/g. In [4], this molecule gave an AUClast of 220405 ng·min/g. In data set [6], this molecule had an area under the curve AUC(0-t) of 7340 ng·h/mL. The Kp uu in data set [7] turned out to be 0.5.
Turning to `O=C(COc1cnc(N2C(=O)[C@@H]3[C@@H]4C=C[C@@H]([C@H]5C[C@@H]45)[C@@H]3C2=O)nc1)c1ccc(Cl)c(Cl)c1`, the Tmax was 10 min in data set [1] and 30 min in data set [2]. Moreover, the Cmax amounted to 3440 ng/mL in [3] and 978 ng/g in [5]. In data set [4], the AUClast is 83823 ng·min/g. In [6], this molecule showed an AUC(0-t) of 4780 ng·h/mL. The Kp uu in data set [7] was 0.29.
On to `COc1ccc(C(=O)C2CC2c2ccc(N3C(=O)[C@@H]4[C@@H]5C=C[C@@H]([C@H]6C[C@@H]56)[C@@H]4C3=O)cc2)cc1` (stereo partly specified), for which the Tmax in data set [1] is 10 min; in [2], 30 min. Moreover, the values for the Cmax in [3] and in data set [5] were 887 ng/mL and 992 ng/g, respectively. The AUClast in data set [4] was 294638 ng·min/g. In addition, the AUC(0-t) in data set [6] was 4350 ng·h/mL. For the same molecule, in [7], the Kp uu worked out at 1.13.
`O=C(COc1ccc(N2C(=O)[C@@H]3[C@@H]4C=C[C@@H]([C@H]5C[C@@H]45)[C@@H]3C2=O)cc1)c1cc(Cl)cc(Cl)c1`: the Tmax was 90 min in data set [8]; 30 min in data set [1]; 5 min in data set [10]; 90 min in data set [2]; 30 min in data set [17]; 5 min in [23]. Also, the AUC(0-t) in [9] is 23100 ng·h/mL; in data set [19], 14800 ng·h/mL; in data set [6], 4830 ng·h/mL. Further, the concentration at 0.5 h in data set [11] was determined as 1430 ng/mL; in [15], 11500 ng/g; in data set [20] it was 1160 ng/g. Also, the values for the bioavailability in data set [12] and in data set [18] were 58% and 39%, respectively. For the same molecule, the Cmax in data set [13] stood at 12000 ng/mL; in data set [14], 2380 ng/g; in data set [3], 1300 ng/mL; in [22] it was 3260 ng/g; in data set [5], 2530 ng/g; in data set [24] it was 3400 ng/mL. Moreover, the Cmax at […] in data set [16] stood at 2380 ng/g. For the same molecule, the AUClast in data set [4] is 720503 ng·min/g; in data set [21], 1774789 ng·min/g; in data set [25], 767638 ng·min/g. The Kp uu in data set [7] came to 2.49.
